In patent US20240287614A1, “RECIPROCAL MICRORNA-MRNA PAIRINGS AS BIOMARKERS AND THERAPEUTIC TARGETS IN CANCER” (UNIVERSITY OF MARYLAND, EASTERN SHORE, priority 2023, published 2024):

Experiments:
[1] = tested on: mTOR and pmTOR; test: Western blot of mTOR and pmTOR in cytoplasmic and nuclear fractions of prostate cancer cell lines; format: cell-based, human
Description: The human cell lines used in the study included: 22Rv1, LNCaP, PC-3, RC77 T/E and MDA PCa 2b (prostate cancer cell lines), MDA MB 231 and MCF-7 (breast cancer cell lines), HT-29 and SW620 (colon cancer cell lines), A549 and H1299 (lung cancer cell lines). RWPE-1, HMEC, FHC, and BEAS-2B were used as normal control cell lines for prostate, breast, colon, and lung, respectively. Note that 22Rv1 is a castration-resistant […] prostate cancer cell line, while LNCaP and PC-3 were derived from lymph node and bone metastasis of […] prostate cancer patients, respectively. RC77 T/E was derived from a primary prostate cancer patient, and MDA PCa 2b was derived from bone metastasis of an prostate cancer patient. The cell lines described were used as in vitro cell models to evaluate the functional roles of miR-99b-5p/MTOR pairing in the […] prostate cancer, African American prostate cancer and solid tumors in general. The cells were grown in specific cell culture media described as follows: 22Rv1, LNCaP, MCF-7 and H1299 were cultured in RPMI-1640 with 10% fetal bovine serum (FBS), PC-3, A549 and FHC were cultured in DMEM with 10% FBS, RC77 T/E was cultured in Keratinocyte SFM with human recombinant epidermal growth factor (EGF) and bovine pituitary extract (BPE), MDA PCa 2b were cultured in BRFF-HPC1 with 20% FBS, HT-29 was cultured in McCory's with 10% FBS, SW620 and MDA MB 231 were cultured in L-15 with 10% FBS, HMEC was cultured in mammary epithelial cell basal medium with supplements, and BEAS-2B was cultured in BEBM base medium with BEBM supplement kit. Cells were maintained at 37° C. in a 5% CO2 incubator.
The 22Rv1, LNCaP, PC-3, MDA PCa 2b, MCF7, H1299, A549, HT-29, SW620, MDA MB-231, HMEC and BEAS-2B cells were seeded at a density of 3×10^5 cells/well in 6-well plates. RC77 T/E cells were seeded at a density of 5×10^5 cells/well in 6-well plates. The cells were grown for 24 h and then transfected with nonsense/scrambled RNA (NS) and miR-99b-5p mimic (Ambion) using DharmaFECT4 transfection reagent (Dharmacon). After 24 h, fresh media were applied to replace the transfection reagent-containing media, then the cells were incubated for an additional 24 h.
The total proteins were extracted using M-PER extraction reagent with protease and phosphatase inhibitor cocktail (Thermo Fisher Scientific) according to manufacturer's protocol. Cytoplasm and nuclear proteins were extracted using Subcellular Protein Fractionation kit (Thermo Fisher Scientific) according to the manufacturer's protocol. Equal amounts of proteins were used based on the quantification using BCA assay kit (Thermo Fisher Scientific), and the samples were separated by electrophoresis using NuPAGE 4-12% or 8% Bis-Tris gels (Invitrogen). The gels were transferred to PVDF membranes (Bio-Rad) then the PVDF membranes were incubated with SuperBlock blocking buffer (Thermo Fisher Scientific). After 1 h, the PVDF membranes were incubated with primary antibodies overnight at 4° C., washed 3 times with 1×TBST, and then incubated with secondary antibody for 1 h at room temperature, then washed 5 times with 1×TBST. The results were analyzed with SuperSignal ECL substrates (Thermo Fisher Scientific) and a ChemiDoc XRS system (Bio-Rad). The primary and secondary antibodies used in the study were mTOR, pmTOR, AR, GAPDH, Lamin B1, β-actin, and anti-rabbit IgG-HRP antibodies from Cell Signaling Technology.

[2] = tested on: cancer cell lines (HT-29, SW620, MDA MB 231, MCF-7, A549, and H1299); test: TUNEL assay; format: cell-based, human; details: mimic vs NS transfected cancer cells; 48 h
Protocol: TUNEL assay was carried out according to the manufacturer's protocol (Click-iT™ Plus In-situ Apoptosis Detection with Alexa Fluor Dyes, Thermo Fisher Scientific). Precisely, 4×10^4 cells (HT-29, SW620, MDA MB 231, MCF-7, A549, and H1299) were seeded on coverslips and allowed to adhere for 24 h in 5% CO2 incubator at 37° C. These cells were fixed in 4% paraformaldehyde in 1×PBS after exposure of miR-99b-5p mimic or negative control mimic for 48 h, then washed with PBS three times followed by the incubation with 0.25% Triton X-100 in 1×PBS and ultimately the cells were incubated with differential steps of TUNEL reaction mixture as per the manufacturer's protocol. Lastly, the processed cells were counterstained with DAPI for 5 min, at room temperature in the dark. All labeled and/or prepared cells were mounted on glass slides and were visualized by Olympus BX3 fluorescence microscope (Olympus). Cell images were captured from 3-4 random areas at 10× magnification by using CellSens V1.18 software (Olympus).

[3] = all European American and African American prostate cancer cell lines, 48 h transfection, vs NS
[4] = metastatic prostate cancer cell line MDA PCa 2b

## miR-99b-5p mimic: miRNA mimic of miR-99b-5p (SEQ ID NO: 2, CACCCGUAGAACCGACCUUGCG), purchased from Ambion (listed as RNA, chemistry not given here; listed as Homo sapiens)
[1]; [3]
  mTOR in nuclear fractions (Western blot): moderate to significant reduction
  pmTOR in nuclear fractions (Western blot): moderate to significant reduction
[1]; all the prostate cancer cell lines, vs NS
  cytoplasmic mTOR (Western blot): slight to no reduction
[1]; [4]
  nuclear mTOR (Western blot): significant decrease
  nuclear pmTOR (Western blot): significant decrease
[2]
  DNA breakages (TUNEL red fluorescent signals in nuclei): enhanced
